Laboratory results as given in patent publication US12448392B2, “Spiropiperidine derivatives” (89BIO LTD, priority 2016, dated 2025).
Where a name gives a salt, the structure may show the parent alone. Read-outs that look alike come from different tables or passages of the source.

Target: T1, recombinant human baculovirus-expressed GST-tagged FASN (Homo sapiens, UniProt P49327)
T1 construct: GST
Experiment: biochemical

[1] = 5 nM FASN, 150 μM NADPH, 10 μM acetyl-CoA, 25 μM malonyl-CoA, 90 minutes incubation, read-out: IC50 data for Compounds of Formula I, Activity

T1 sequence (P49327 whole entry): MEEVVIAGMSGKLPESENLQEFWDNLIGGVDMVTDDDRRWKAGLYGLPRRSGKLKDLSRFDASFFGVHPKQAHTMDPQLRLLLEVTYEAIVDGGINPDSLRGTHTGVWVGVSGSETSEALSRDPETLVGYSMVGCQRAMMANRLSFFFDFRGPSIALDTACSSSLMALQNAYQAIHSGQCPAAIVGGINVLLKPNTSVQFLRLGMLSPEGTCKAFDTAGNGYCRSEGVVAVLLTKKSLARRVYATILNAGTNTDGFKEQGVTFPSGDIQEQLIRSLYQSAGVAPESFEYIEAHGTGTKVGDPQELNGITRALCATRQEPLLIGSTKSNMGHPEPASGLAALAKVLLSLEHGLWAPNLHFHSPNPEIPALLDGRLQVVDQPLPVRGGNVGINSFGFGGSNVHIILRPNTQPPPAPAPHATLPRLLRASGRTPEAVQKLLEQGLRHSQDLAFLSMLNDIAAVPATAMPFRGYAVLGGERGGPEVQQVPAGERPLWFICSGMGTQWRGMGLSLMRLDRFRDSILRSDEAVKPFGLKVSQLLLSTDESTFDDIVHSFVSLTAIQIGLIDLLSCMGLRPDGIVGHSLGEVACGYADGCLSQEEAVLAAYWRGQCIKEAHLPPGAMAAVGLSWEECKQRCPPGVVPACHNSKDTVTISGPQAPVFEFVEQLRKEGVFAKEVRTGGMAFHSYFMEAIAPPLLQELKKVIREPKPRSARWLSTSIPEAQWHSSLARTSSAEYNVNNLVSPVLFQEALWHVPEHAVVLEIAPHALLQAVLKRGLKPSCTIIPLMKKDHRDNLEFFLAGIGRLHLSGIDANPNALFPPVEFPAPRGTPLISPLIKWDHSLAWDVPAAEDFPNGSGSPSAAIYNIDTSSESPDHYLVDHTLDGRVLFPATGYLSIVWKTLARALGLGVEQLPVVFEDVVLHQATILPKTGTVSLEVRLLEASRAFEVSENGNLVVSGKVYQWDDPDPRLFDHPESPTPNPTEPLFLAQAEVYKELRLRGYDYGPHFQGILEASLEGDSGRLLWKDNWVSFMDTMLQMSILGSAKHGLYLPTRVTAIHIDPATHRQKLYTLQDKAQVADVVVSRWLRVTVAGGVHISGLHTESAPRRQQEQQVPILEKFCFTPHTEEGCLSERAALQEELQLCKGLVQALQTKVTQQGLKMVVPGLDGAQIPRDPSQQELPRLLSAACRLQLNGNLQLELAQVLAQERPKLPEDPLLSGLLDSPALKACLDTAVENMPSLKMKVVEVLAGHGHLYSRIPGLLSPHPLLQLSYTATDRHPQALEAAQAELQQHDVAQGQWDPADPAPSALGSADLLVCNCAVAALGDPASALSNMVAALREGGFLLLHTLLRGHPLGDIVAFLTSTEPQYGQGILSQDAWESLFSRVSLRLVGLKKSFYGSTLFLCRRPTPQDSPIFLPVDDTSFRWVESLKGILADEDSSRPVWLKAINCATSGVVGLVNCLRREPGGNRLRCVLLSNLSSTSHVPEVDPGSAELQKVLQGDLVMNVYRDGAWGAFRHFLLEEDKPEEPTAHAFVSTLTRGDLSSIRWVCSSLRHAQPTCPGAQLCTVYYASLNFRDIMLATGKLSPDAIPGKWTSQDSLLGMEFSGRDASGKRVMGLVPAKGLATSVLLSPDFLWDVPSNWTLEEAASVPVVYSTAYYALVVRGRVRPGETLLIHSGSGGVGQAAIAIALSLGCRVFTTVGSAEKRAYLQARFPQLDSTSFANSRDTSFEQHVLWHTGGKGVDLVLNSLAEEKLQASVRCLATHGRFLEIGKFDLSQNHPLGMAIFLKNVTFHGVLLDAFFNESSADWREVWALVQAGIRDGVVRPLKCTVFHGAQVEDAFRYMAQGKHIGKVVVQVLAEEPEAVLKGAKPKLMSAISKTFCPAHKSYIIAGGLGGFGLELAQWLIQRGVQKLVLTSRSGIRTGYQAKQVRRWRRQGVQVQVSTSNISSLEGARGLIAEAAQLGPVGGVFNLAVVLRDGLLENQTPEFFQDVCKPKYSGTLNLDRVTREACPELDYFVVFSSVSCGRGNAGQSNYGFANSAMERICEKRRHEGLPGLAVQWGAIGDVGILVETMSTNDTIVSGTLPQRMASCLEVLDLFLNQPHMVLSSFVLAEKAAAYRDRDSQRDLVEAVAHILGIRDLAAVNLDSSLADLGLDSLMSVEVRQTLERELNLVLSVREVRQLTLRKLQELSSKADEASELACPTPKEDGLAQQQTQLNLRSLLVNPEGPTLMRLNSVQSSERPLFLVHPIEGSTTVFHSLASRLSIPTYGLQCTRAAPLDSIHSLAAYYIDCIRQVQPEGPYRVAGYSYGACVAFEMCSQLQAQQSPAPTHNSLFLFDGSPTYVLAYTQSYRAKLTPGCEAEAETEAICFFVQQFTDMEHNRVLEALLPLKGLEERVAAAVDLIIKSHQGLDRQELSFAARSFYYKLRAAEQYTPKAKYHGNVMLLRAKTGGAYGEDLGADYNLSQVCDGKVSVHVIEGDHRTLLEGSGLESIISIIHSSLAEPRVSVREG

| SMILES | IC50 [1] [nM] | IC50 [nM] |
| --- | --- | --- |
| Cc1c(-c2ccc3c(c2)CCC2(CCN(C(=O)C4CC4)CC2)O3)ccc2nccn12 [Example 27, Cyclopropyl-[6-(5-methylimidazo[1,2-a]pyridin-6-yl)spiro[chromane-2,4′-piperidine]-1′-yl]methanone] | 100 to 999 |  |
| CCOC(=O)N1CCC2(CC1)OCc1cc(-c3cnc4ccccc4c3C)ccc1O2 [Example 138, Ethyl 6-(4-methyl-3-quinolyl)spiro[4H-1,3-benzodioxine-2,4′-piperidine]-1′-carboxylate] |  | 100 to 999 |
| Cc1c(-c2cc(Cl)c3c(c2)CCC2(CCN(C(N)=O)CC2)O3)ccc2cccnc12 [Example 249, 8-chloro-6-(8-methyl-7-quinolyl)spiro[chromane-2,4′-piperidine]-1′-carboxamide] | 1000 to 10000 |  |
| O=C([C@H]1CCCO1)N1CCC2(CCc3cc(-c4cccnc4)ccc3O2)CC1 [Example 223, [6-(3-Pyridyl)spiro[chromane-2,4′-piperidine]-1′-yl]-[(2R)-tetrahydrofuran-2-yl]methanone, HCl] | 100 to 999 |  |
| CCC(=O)N1CCC2(CCc3cc(-c4cccnc4)ccc3O2)CC1 [Example 221, 1-[6-(3-Pyridyl)spiro[chromane-2,4′-piperidine]-1′-yl]propan-1-one, HCl] | 1000 to 10000 |  |
| CCC(=O)N1CCC2(CCc3cc(-c4ccncc4)ccc3O2)CC1 [Example 226, 1-[6-(4-Pyridyl)spiro[chromane-2,4′-piperidine]-1′-yl]propan-1-one, HCl] | 1000 to 10000 |  |
| O=C(C1CC1)N1CCC2(CC1)OCc1cc(-c3ccc4cccnc4c3)ccc1O2 [Example 32, Cyclopropyl-[6-(7-quinolyl)spiro[4H-1,3-benzodioxine-2,4′-piperidine]-1′-yl]methanone] |  | 1 to 99 |
| CCOC(=O)N1CCC2(CC1)OCc1cc(-c3ccc4cnc(C)cc4c3)ccc1O2 [Example 200, Ethyl 6-(3-methyl-6-isoquinolyl)spiro[4H-1,3-benzodioxine-2,4′-piperidine]-1′-carboxylate] |  | 1000 to 10000 |
| O=C(C1CC1)N1CCC2(CCc3cc(-c4cccnc4)ccc3O2)CC1 [Example 222, Cyclopropyl-[6-(3-pyridyl)spiro[chromane-2,4′-piperidine]-1′-yl]methanone, HCl] | 1000 to 10000 |  |
| CONC(=O)N1CCC2(CC1)Cc1cc(-c3cnc4ccccc4c3C)ccc1O2 [Example 157, N-Methoxy-5-(4-methyl-3-quinolyl)spiro[3H-benzofuran-2,4′-piperidine]-1′-carboxamide] | 1000 to 10000 |  |
| CCC(=O)N1CCC2(CCc3cc(-c4cnc5ccccc5c4C)ccc3O2)CC1 [Example 2, 1-[6-(4-Methyl-3-quinolyl)spiro[chromane-2,4′-piperidine]-1′-yl]propan-1-one, HCl] | 1 to 99 |  |
| Cc1c(-c2ccc3c(c2)COC2(CCN(C(=O)NC(C)C)CC2)O3)ccc2cccnc12 [Example 119, N-Isopropyl-6-(8-methyl-7-quinolyl)spiro[4H-1,3-benzodioxine-2,4′-piperidine]-1′-carboxamide] |  | 1 to 99 |
| O=C([C@H]1CCCO1)N1CCC2(CCc3cc(-c4ccncc4)ccc3O2)CC1 [Example 228, [6-(4-Pyridyl)spiro[chromane-2,4′-piperidine]-1′-yl]-[(2R)-tetrahydrofuran-2-yl]methanone, HCl] | 100 to 999 |  |
| NC(=O)N1CCC2(CCc3cc(-c4cc5ccccc5cn4)ccc3O2)CC1 [Example 143, 6-(3-Isoquinolyl)spiro[chromane-2,4′-piperidine]-1′-carboxamide] | 1000 to 10000 |  |
| CCC(=O)N1CCC2(CC1)OCc1cc(-c3ccc4c(C)nccc4c3)ccc1O2 [Example 21, 1-[6-(1-Methyl-6-isoquinolyl)spiro[4H-1,3-benzodioxine-2,4′-piperidine]-1′-yl]propan-1-one] |  | 1 to 99 |
| CONC(=O)N1CCC2(CCc3cc(-c4ccc5cccnc5c4C)c(C)cc3O2)CC1 [Example 245, N-methoxy-7-methyl-6-(8-methyl-7-quinolyl)spiro[chromane-2,4′-piperidine]-1′-carboxamide] | 100 to 999 |  |
| CONC(=O)N1CCC2(CC1)Cc1cc(-c3ccc4cccnc4c3OC)ccc1O2 [Example 166, N-Methoxy-5-(8-methoxy-7-quinolyl)spiro[3H-benzofuran-2,4′-piperidine]-1′-carboxamide] | 1000 to 10000 |  |
| CCNC(=O)N1CCC2(CC1)Cc1cc(-c3ccc4ccnn4c3C)ccc1O2 [Example 165, N-Ethyl-5-(7-methylpyrazolo[1,5-a]pyridin-6-yl)spiro[3H-benzofuran-2,4′-piperidine]-1′-carboxamide] | 1000 to 10000 |  |
| CONC(=O)N1CCC2(CC1)OCCc1cc(-c3ccc4cccnc4c3C)ccc1O2 [Example 80, N-Methoxy-7-(8-methyl-7-quinolyl)spiro[4,5-dihydro-1,3-benzodioxepine-2,4′-piperidine]-1′-carboxamide] |  | 1 to 99 |
| CONC(=O)N1CCC2(CC1)OCc1cc(-c3ccc4c(C)nccc4c3)ccc1O2 [Example 195, N-methoxy-6-(1-methyl-6-isoquinolyl)spiro[4H-1,3-benzodioxine-2,4′-piperidine]-1′-carboxamide] |  | 1 to 99 |
| Cc1c(-c2ccc3c(c2)CCC2(CCN(C(=O)NOCC(C)C)CC2)O3)ccc2cccnc12 [Example 104, N-Isobutoxy-6-(8-methyl-7-quinolyl)spiro[chromane-2,4′-piperidine]-1′-carboxamide] | 100 to 999 |  |
| Cc1c(-c2ccc3c(c2)CC2(CCN(C(N)=O)CC2)O3)ccc2ccnn12 [Example 164, 5-(7-Methylpyrazolo[1,5-a]pyridin-6-yl)spiro[3H-benzofuran-2,4′-piperidine]-1′-carboxamide] | 1000 to 10000 |  |
| O=C([C@H]1CCCO1)N1CCC2(CCc3cc(-c4ccc5c(C6CC6)nccc5c4)ccc3O2)CC1 [Example 5, [6-(1-Cyclopropyl-6-isoquinolyl)spiro[chromane-2,4′-piperidine]-1′-yl]-[(2R)-tetrahydrofuran-2-yl]methanone] | 1 to 99 |  |
| O=C(C1CC1)N1CCC2(CC1)CC(O)c1cc(-c3cnc4ccccc4c3)ccc1O2 (centres unmarked) [Example 46, Cyclopropyl-[4-hydroxy-6-(3-quinolyl)spiro[chromane-2,4′-piperidine]-1′-yl]methanone] | 100 to 999 |  |
| Cc1cc2cc(-c3ccc4c(c3)CCC3(CCN(C(N)=O)CC3)O4)ccc2cn1 [Example 206, 6-(3-Methyl-6-isoquinolyl)spiro[chromane-2,4′-piperidine]-1′-carboxamide] | 1000 to 10000 |  |
| O=C([C@H]1CCCO1)N1CCC2(CC1)OCc1cc(-c3cnc4ccccc4c3)ccc1O2 [Example 48, [6-(3-Quinolyl)spiro[4H-1,3-benzodioxine-2,4′-piperidine]-1′-yl]-[(2R)-tetrahydrofuran-2-yl]methanone] |  | 1 to 99 |
| Cc1c(-c2ccc3c(c2)CCC2(CCN(C(=O)NOC(C)C)CC2)O3)cnc2ccccc12 [Example 193, N-isopropoxy-6-(4-methyl-3-quinolyl)spiro[chromane-2,4′-piperidine]-1′-carboxamide] | 1 to 99 |  |
| O=C(C1CC1)N1CCC2(C=Cc3cc(-c4cnc5ccccc5c4)ccc3O2)CC1 [Example 44, Cyclopropyl-[6-(3-quinolyl)spiro[chromene-2,4′-piperidine]-1′-yl]methanone] | 1 to 99 |  |
| O=C(C1CC1)N1CCC2(CCc3cc(-c4ccccn4)ccc3O2)CC1 [Example 216, Cyclopropyl-[6-(2-pyridyl)spiro[chromane-2,4′-piperidine]-1′-yl]methanone, HCl] | 1000 to 10000 |  |
